In patent US10745719B2, “Enzymes and methods for dealkylation of substrates” (Alliance for Sustainable Energy, LLC, priority 2015, dated 2020):

Columns and labels:
[1] = system: P. putida KT2440/pCJ021; experiment: Growth on and metabolism of aromatic substrate by P. putida KT2440/pCJ021 (cytochrome P450 O-dealkylase and reductase) in M9 minimal medium; type: cell-based, Pseudomonas putida
Text: (§1) The genes encoding the cytochrome P450 protein and the co-transcribed reductase were amplified from Amycolatopsis sp. ATCC 39116 DNA using primers oCJ169 and oCJ170 (see Table 2) and the product assembled using Gibson Assembly Master Mix (New England BioLabs) into the broad host-range vector pBTL-2, which was amplified using primers oCJ160 and oCJ161, resulting in pCJ021. pBTL-2 (a gift from Ryan Gill; Addgene plasmid #22806) is a broad host-range vector that drives expression of inserted genes using the lac promoter, which is constitutively expressed in Pseudomonas putida KT2440. The cytochrome P450 gene alone was also amplified using oCJ169 and oCJ206 and assembled it into the same vector (resulting in pCJ024). pCJ021 was then transformed into P. putida KT2440 to generate P. putida KT2440/pCJ021.
HPLC analysis was performed by injecting 6 μL of 0.2 μm filtered culture supernatant onto an Agilent 1100 series system equipped with a Phenomenex Rezex RFQ-Fast Acid H+ (8%) column and a cation H+ guard cartridge (Bio-Rad Laboratories) at 85° C. run using a mobile phase of 0.01 N sulfuric acid at a flow rate of 1.0 mL/min and a diode array detector to measure absorbance at 210 nm. Analytes were identified by comparing retention times and spectral profiles with pure standards. HPLC chromatograms show milli-absorbance units (mAU) on the Y axis and retention time (minutes) on the X axis.
(§2) P. putida KT2440 can readily metabolize catechol for growth, so a functional enzyme with O-dealkylase activity would convert guaiacol or guaethol to catechol and enable this organism to metabolize guaiacol or guaethol for growth, which it is not natively capable of.
HPLC analyses show the disappearance of guaiacol in a culture of P. putida KT2440/pCJ021 grown on M9 minimal medium containing guaiacol and the lack of guaiacol catabolism by native P. putida KT2440 (FIG. 6).

[2] = system: P. putida KT2440 transformed with pCJ024; experiment: Metabolism of guaiacol by P. putida KT2440 transformed with pCJ024 (cytochrome P450 gene alone); type: cell-based, Pseudomonas putida; conditions: M9 minimal medium, 5 mM guaiacol
Text: as §1, §2

[3] = 5 mM guaiacol as sole source of carbon and energy

Row | SMILES | metabolism of substrate ([1]; 5 mM guaethol as sole source of carbon and energy, 72 hours) | OD600 reached ([1]; 5 mM guaethol, growth on the catechol produced) | metabolism of substrate [2] | OD600 reached [1, 3] | metabolism of substrate [1, 3]
1 | CCOc1ccccc1O [guaethol, 2-ethoxyphenol] | able to metabolize the guaethol | 7 |  |  | 
2 | COc1ccccc1O [guaiacol, 2-methoxyphenol] |  |  | neither of these strains was able to metabolize guaiacol | over 0.5 | metabolizing the guaiacol completely
